According to patent US20250163064A1, “QUINAZOLINE COMPOUNDS AND USES THEREOF AS INHIBITORS OF MUTANT KRAS PROTEINS” (AMGEN INC., priority 2022, published 2025):

Assays:
[1] = target: His-tagged KRAS G12D protein (Homo sapiens (Human), UniProt P01116, G12D); test: KRAS G12D TR-FRET Assay; assay type: binding; conditions: biotinylated KRPep-2d, 10 μM GDP
Summary of the method: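 His-KRAS G12D (20 nM working solution) preincubated with compound 30 min at rt in HEPES pH 7.4 buffer with 10 μM GDP, then biotinylated KRPep-2d added for 1 h. Eu-anti-His/streptavidin-d2 TR-FRET 665/615 ratio; IC50 from 4-parameter logistic fit.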

[2] = target: GDP-bound KRAS protein (aa 1-169), G12D and C118A; SOS-mediated nucleotide exchange (Homo sapiens (Human), UniProt P01116, C118A/G12D); test: KRAS G12D Coupled Nucleotide Exchange Assay; assay type: biochemical; conditions: 2 h compound pre-incubation, GTP, cRAF AlphaScreen
GDP-bound KRAS protein (aa 1-169), G12D and C118A; SOS-mediated nucleotide exchange, sequence (P01116 other isoform, or with tags, fused parts or gaps G12D/C118A): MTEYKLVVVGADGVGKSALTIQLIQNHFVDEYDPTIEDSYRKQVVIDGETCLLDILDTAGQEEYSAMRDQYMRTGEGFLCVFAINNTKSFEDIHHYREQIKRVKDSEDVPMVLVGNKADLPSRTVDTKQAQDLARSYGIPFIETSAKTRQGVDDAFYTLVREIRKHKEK
Summary of the method: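 Read-out was AlphaScreen, with IC50 derived by 4-parameter logistic fitting. Before that, SOS (aa 564-1049) and GTP drove 30 min exchange on His-tagged KRAS 1-169 carrying G12D and C118A, following a 2 h compound preincubation in 25 mM HEPES pH 7.4, 10 mM MgCl2, 0.01% Triton X-100.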

[3] = test system: Phosphorylation of ERK1/2 in AsPC-1 cells; test: Phospho-ERK1/2 MSD Assay; assay type: cell-based; conditions: Homo sapiens, ASPC1, 2 h, read-out: 2 h p-ERK (AsPC-1 cells), IC50 (μM), AsPC-1 cells, 2 h compound treatment
Protocol: AsPC-1 (ATCC® CRL-1682TM) cells were cultured in RPMI 1640 Medium (ThermoFisher Scientific 11875093) containing 10% fetal bovine serum (ThermoFisher Scientific 16000044) and 1× penicillin-streptomycin-glutamine (ThermoFisher Scientific 10378016). Sixteen hours prior to compound treatment, AsPC-1 cells were seeded in 96-well cell culture plates at a density of 25,000 cells/well and incubated at 37° C., 5% CO2. A compound dose-response titration was diluted in growth media, added to appropriate wells of a cell culture plate, and then incubated at 37° C., 5% CO2 for 2 hours. Following compound treatment, cells were washed with ice-cold Dulbecco's phosphate-buffered saline, no Ca^2+ or Mg^2+ (ThermoFisher Scientific 14190144), and then lysed in RIPA buffer (50 mM Tris-HCl pH 7.5, 1% Igepal, 0.5% sodium deoxycholate, 150 mM NaCl, and 0.5% sodium dodecyl sulfate) containing protease inhibitors (Roche 4693132001) and phosphatase inhibitors (Roche 4906837001). Phosphorylation of ERK1/2 in compound-treated lysates was assayed using Phospho-ERK1/2 Whole Cell Lysate kits (Meso Scale Discovery K151DWD) according to the manufacturer's protocol. Assay plates were read on a Meso Scale Discovery Sector Imager 6000, and data were analyzed using a 4-parameter logistic model to calculate IC50 values.

His-tagged KRAS G12D protein, sequence (P01116-2 other isoform, or with tags, fused parts or gaps G12D): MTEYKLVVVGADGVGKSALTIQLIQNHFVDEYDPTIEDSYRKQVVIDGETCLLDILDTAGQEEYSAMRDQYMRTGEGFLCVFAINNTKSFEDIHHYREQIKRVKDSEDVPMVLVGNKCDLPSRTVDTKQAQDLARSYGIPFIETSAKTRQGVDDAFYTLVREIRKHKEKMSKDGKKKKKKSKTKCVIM

| Structure (SMILES) | IC50 [1] | IC50 [2] | IC50 [3] |
| --- | --- | --- | --- |
| N#Cc1c(N)sc2c(F)ccc(-c3c(Cl)cc4c(N5CCCCC5)nc(OC[C@@]56CCCN5C[C@H](F)C6)nc4c3F)c12 [Example 26, 2-Amino-4-(6-chloro-8-fluoro-2-(((2R,7aS)-2-fluorotetrahydro-1H-pyrrolizin-7a(5H)-yl)methoxy)-4-(piperidin-1-yl)quinazolin-7-yl)-7-fluorobenzo[6] thiophene-3-carbonitrile] | 6 nM | 7 nM | 0.601 µM |
| N#Cc1c(N)sc2c(F)ccc(-c3c(Cl)cc4c(N5CCCCC(F)C5)nc(OC[C@@]56CCCN5C[C@H](F)C6)nc4c3F)c12 (stereo partly drawn) [Example 27, 2-Amino-4-(6-chloro-8-fluoro-4-(3-fluoroazepan-1-yl)-2-(((2R,7aS)-2-fluorotetrahydro-1H-pyrrolizin-7a(5H)-yl)methoxy)quinazolin-7-yl)-7-fluorobenzo[b] thiophene-3-carbonitrile] | 2 nM | 2 nM | 0.043 µM |
| N#Cc1c(N)sc2c(F)ccc(-c3c(Cl)cc4c(N5CCOC[C@H](O)C5)nc(OC[C@@]56CCCN5C[C@H](F)C6)nc4c3F)c12 [Example 30, 2-Amino-4-(6-chloro-8-fluoro-2-(((2R,7aS)-2-fluorotetrahydro-1H-pyrrolizin-7a(5H)-yl)methoxy)-4-((R)-6-hydroxy-1,4-oxazepan-4-yl)quinazolin-7-yl)-7-fluorobenzo[b] thiophene-3-carbonitrile] | 0.4 nM | 0.8 nM | 0.212 µM |
| N#Cc1c(N)sc2c(F)ccc(-c3c(Cl)cc4c(N5CCCCCCC5)nc(OC[C@@]56CCCN5C[C@H](F)C6)nc4c3F)c12 [Example 31, 2-Amino-4-(4-(azocan-1-yl)-6-chloro-8-fluoro-2-(((2R,7aS)-2-fluorotetrahydro-1H-pyrrolizin-7a(5H)-yl)methoxy)quinazolin-7-yl)-7-fluorobenzo[b] thiophene-3-carbonitrile] | 1 nM | 1 nM | 0.187 µM |
| N#Cc1c(N)sc2c(F)ccc(-c3c(Cl)cc4c(N5CCOC[C@@H](O)C5)nc(OC[C@@]56CCCN5C[C@H](F)C6)nc4c3F)c12 [Example 32, 2-Amino-4-(6-chloro-8-fluoro-2-(((2R,7aS)-2-fluorotetrahydro-1H-pyrrolizin-7a(5H)-yl)methoxy)-4-((S)-6-hydroxy-1,4-oxazepan-4-yl)quinazolin-7-yl)-7-fluorobenzo[b] thiophene-3-carbonitrile] | 2 nM | 2 nM | 0.079 µM |
| N#Cc1c(N)sc2c(F)ccc(-c3c(Cl)cc4c(N5CC6COC(C6)C5)nc(OC[C@@]56CCCN5C[C@H](F)C6)nc4c3F)c12 (stereo partly drawn) [Example 33, 4-(4-(6-Oxa-3-azabicyclo[3.2.1]octan-3-yl)-6-chloro-8-fluoro-2-(((2R,7aS)-2-fluorotetrahydro-1H-pyrrolizin-7a(5H)-yl)methoxy)quinazolin-7-yl)-2-amino-7-fluorobenzo[b] thiophene-3-carbonitrile] | 3 nM | 3 nM | 0.285 µM |
| N#Cc1c(N)sc2c(F)ccc(-c3c(Cl)cc4c(N5CCOCC(F)(F)C5)nc(OC[C@@]56CCCN5C[C@H](F)C6)nc4c3F)c12 [Example 34, 2-Amino-4-(6-chloro-4-(6,6-difluoro-1,4-oxazepan-4-yl)-8-fluoro-2-(((2R,7aS)-2-fluorotetrahydro-1H-pyrrolizin-7a(5H)-yl)methoxy)quinazolin-7-yl)-7-fluorobenzo[b] thiophone-3-carbonitrile] | 4 nM | 4 nM | 0.093 µM |
| N#Cc1c(N)sc2c(F)ccc(-c3c(Cl)cc4c(N5CCC[C@@H](O)C5)nc(OC[C@@]56CCCN5C[C@H](F)C6)nc4c3F)c12 [Example 35, 2-Amino-4-(6-chloro-8-fluoro-2-(((2R,7aS)-2-fluorotetrahydro-1H-pyrrolizin-7a(5H)-yl)methoxy)-4-((R)-3-hydroxypiperidin-1-yl)quinazolin-7-yl)-7-fluorobenzo[b] thiophene-3-carbonitrile] | 4 nM | 5 nM | 0.199 µM |
| N#Cc1c(N)sc2c(F)ccc(-c3c(Cl)cc4c(N5CCC[C@H](O)C5)nc(OC[C@@]56CCCN5C[C@H](F)C6)nc4c3F)c12 [Example 36, 2-Amino-4-(6-chloro-8-fluoro-2-(((2R,7aS)-2-fluorotetrahydro-1H-pyrrolizin-7a(5H)-yl)methoxy)-4-((S)-3-hydroxypiperidin-1-yl)quinazolin-7-yl)-7-fluorobenzo[b] thiophene-3-carbonitrile] | 5 nM | 6 nM | 0.205 µM |
| CCC1(O)CCCN(c2nc(OC[C@@]34CCCN3C[C@H](F)C4)nc3c(F)c(-c4ccc(F)c5sc(N)c(C#N)c45)c(Cl)cc23)C1 (stereo partly drawn) [Example 37, 2-Amino-4-(6-chloro-4-(3-ethyl-3-hydroxypiperidin-1-yl)-8-fluoro-2-(((2R,7aS)-2-fluorotetrahydro-1H-pyrrolizin-7a(5H)-yl)methoxy)quinazolin-7-yl)-7-fluorobenzo[b] thiophone-3-carbonitrile] | 8 nM | 10 nM | 0.859 µM |
| N#Cc1c(N)sc2c(F)ccc(-c3c(Cl)cc4c(N5CCCC6(CCS(=O)(=O)C6)C5)nc(OC[C@@]56CCCN5C[C@H](F)C6)nc4c3F)c12 (stereo partly drawn) [Example 38, 2-Amino-4-(6-chloro-4-(2,2-dioxido-2-thia-7-azaspiro[4.5]decan-7-yl)-8-fluoro-2-(((2R,7aS)-2-fluorotetrahydro-1H-pyrrolizin-7a(5H)-yl)methoxy)quinazolin-7-yl)-7-fluorobenzo[b] thiophene-3-carbonitrile] | 10 nM | 10 nM | 0.781 µM |
| C[C@]1(O)CCCN(c2nc(OC[C@@]34CCCN3C[C@H](F)C4)nc3c(F)c(-c4ccc(F)c5sc(N)c(C#N)c45)c(Cl)cc23)C1 [Example 39, 2-Amino-4-(6-chloro-8-fluoro-2-(((2R,7aS)-2-fluorotetrahydro-1H-pyrrolizin-7a(5H)-yl)methoxy)-4-((S)-3-hydroxy-3-methylpiperidin-1-yl)quinazolin-7-yl)-7-fluorobenzo[b] thiophene-3-carbonitrile] | 10 nM | 11 nM | 0.283 µM |
| N#Cc1c(N)sc2c(F)ccc(-c3c(Cl)cc4c(N5CCCC6(CC(=O)C6)C5)nc(OC[C@@]56CCCN5C[C@H](F)C6)nc4c3F)c12 [Example 40, 2-Amino-4-(6-chloro-8-fluoro-2-(((2R,7aS)-2-fluorotetrahydro-1H-pyrrolizin-7a(5H)-yl)methoxy)-4-(2-oxo-6-azaspiro[3.5]nonan-6-yl)quinazolin-7-yl)-7-fluorobenzo[b] thiophene-3-carbonitrile] | 19 nM | 26 nM | 1.68 µM |
| C[C@@]1(O)CCCN(c2nc(OC[C@@]34CCCN3C[C@H](F)C4)nc3c(F)c(-c4ccc(F)c5sc(N)c(C#N)c45)c(Cl)cc23)C1 [Example 41, 2-Amino-4-(6-chloro-8-fluoro-2-(((2R,7aS)-2-fluorotetrahydro-1H-pyrrolizin-7a(5H)-yl)methoxy)-4-((R)-3-hydroxy-3-methylpiperidin-1-yl)quinazolin-7-yl)-7-fluorobenzo[b] thiophene-3-carbonitrile] | 3 nM | 4 nM | 0.288 µM |
| N#Cc1c(N)sc2c(F)ccc(-c3c(Cl)cc4c(N5CCCC6(COC6)C5)nc(OC[C@@]56CCCN5C[C@H](F)C6)nc4c3F)c12 [Example 42, 2-Amino-4-(6-chloro-8-fluoro-2-(((2R,7aS)-2-fluorotetrahydro-1H-pyrrolizin-7a(5H)-yl)methoxy)-4-(2-oxa-6-azaspiro[3.5]nonan-6-yl)quinazolin-7-yl)-7-fluorobenzo[b] thiophene-3-carbonitrile] | 8 nM | 10 nM | 0.402 µM |
| C[C@@]1(CO)CCCN(c2nc(OC[C@@]34CCCN3C[C@H](F)C4)nc3c(F)c(-c4ccc(F)c5sc(N)c(C#N)c45)c(Cl)cc23)C1 [Example 43, 2-Amino-4-(6-chloro-8-fluoro-2-(((2R,7aS)-2-fluorotetrahydro-1H-pyrrolizin-7a(5H)-yl)methoxy)-4-((R)-3-(hydroxymethyl)-3-methylpiperidin-1-yl)quinazolin-7-yl)-7-fluorobenzo[b] thiophene-3-carbonitrile] | 15 nM | 18 nM | 1.16 µM |
